In this assay the target is T1, CFTR (Homo sapiens, UniProt P13569, DEL508-508).
T1 construct: endogenous in cells; host or cells: primary human bronchial epithelial cells from CF subjects (F508del/MF-HBE), differentiated at air-liquid interface
The experiment in a line: HBE assay: Ussing chamber assay of CFTR-mediated short-circuit currents. It is filed as cell-based. In a few lines: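 CFTR-mediated Isc (μA/cm²) equals the peak response to apical 20 μM forskolin minus the residual after a 20 μM each BPO/GlyH-101/CFTR inhibitor 172 cocktail, recorded in Ussing chambers at Vhold 0 mV, 37 °C, pH 7.4, with 30 μM apical amiloride. Cells were F508del/MF HBE cultures preincubated 18-24 h with corrector (concentration range or 10 μM) plus 1 μM ivacaftor in 20% human serum.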

Setting [1] is: Table 12, read-out: HBE Max Activity (%).
[2] abbreviates: Table 10, read-out: HBE Max activity (%).
Where [3] appears, read: HBE assay, read-out: HBE Max activity (%).
Where [4] appears, read: Table 10, read-out: HBE activity at 10 (μM) (%).
The mark [5] stands for this setting: Table 13, read-out: HBE Activity at 10 μM (%).
The mark [6] stands for this setting: Table 13, read-out: HBE Max Activity (%).
The mark [7] stands for this setting: Table 11, read-out: HBE Max Activity (%).
Setting [8] is: Table 12, read-out: HBE Activity at 10 μM (%).

Structures are written as SMILES. Where two headings read alike, the source gives them in different places. Bounds are passed on as bounds.

T1 sequence (P13569 with tags, fused parts or gaps DEL508-508): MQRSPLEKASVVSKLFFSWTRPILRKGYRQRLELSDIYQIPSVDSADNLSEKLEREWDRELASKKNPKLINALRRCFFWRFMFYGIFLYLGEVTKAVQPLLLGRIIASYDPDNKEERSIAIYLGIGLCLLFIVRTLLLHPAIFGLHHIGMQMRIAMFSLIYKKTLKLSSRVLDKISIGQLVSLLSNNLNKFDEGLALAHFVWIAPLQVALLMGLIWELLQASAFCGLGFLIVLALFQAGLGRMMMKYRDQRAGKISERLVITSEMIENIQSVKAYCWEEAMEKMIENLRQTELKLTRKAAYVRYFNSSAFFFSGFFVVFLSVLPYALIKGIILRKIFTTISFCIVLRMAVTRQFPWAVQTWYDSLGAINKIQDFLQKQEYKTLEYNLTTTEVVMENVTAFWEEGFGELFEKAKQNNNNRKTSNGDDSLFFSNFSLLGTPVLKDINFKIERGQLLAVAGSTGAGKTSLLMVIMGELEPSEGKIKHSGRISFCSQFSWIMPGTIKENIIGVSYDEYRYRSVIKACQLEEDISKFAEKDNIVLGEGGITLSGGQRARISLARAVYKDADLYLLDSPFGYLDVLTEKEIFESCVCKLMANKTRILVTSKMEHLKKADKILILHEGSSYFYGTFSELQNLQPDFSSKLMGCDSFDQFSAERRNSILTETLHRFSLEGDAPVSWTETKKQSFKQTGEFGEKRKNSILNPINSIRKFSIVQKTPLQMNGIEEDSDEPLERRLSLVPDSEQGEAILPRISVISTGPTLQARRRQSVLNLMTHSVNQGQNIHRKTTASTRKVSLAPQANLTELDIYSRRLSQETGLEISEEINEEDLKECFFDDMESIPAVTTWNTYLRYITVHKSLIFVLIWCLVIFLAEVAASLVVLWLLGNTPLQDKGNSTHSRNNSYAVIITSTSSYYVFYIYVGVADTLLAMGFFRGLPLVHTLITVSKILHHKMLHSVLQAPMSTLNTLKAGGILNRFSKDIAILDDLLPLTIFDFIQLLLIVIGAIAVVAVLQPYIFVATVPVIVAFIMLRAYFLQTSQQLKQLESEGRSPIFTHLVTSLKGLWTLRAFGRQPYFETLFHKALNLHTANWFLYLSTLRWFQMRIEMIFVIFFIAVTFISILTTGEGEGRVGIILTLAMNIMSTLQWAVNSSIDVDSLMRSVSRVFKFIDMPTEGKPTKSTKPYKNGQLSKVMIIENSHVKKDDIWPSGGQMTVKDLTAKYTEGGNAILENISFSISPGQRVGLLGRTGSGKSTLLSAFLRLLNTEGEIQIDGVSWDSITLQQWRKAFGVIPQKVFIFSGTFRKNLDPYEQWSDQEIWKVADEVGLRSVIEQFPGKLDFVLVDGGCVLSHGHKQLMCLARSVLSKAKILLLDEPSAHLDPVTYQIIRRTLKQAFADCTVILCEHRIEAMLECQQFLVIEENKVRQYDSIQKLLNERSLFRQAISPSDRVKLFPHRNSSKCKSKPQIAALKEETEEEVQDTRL

By EC50 is commonly meant the concentration giving half of the maximal effect. For `Cc1cccc(C)c1-c1cc2nc(n1)NS(=O)(=O)c1cccc(c1)C(=O)N(Cc1ncc(OC3CCC3)cn1)[C@H](CC(C)(C)C)CO2` [Compound 558], for the setting “Table 12, read-out: HBE EC50”, the EC50 is below 1 µM. Moreover, under setting [1], the Emax is above 60%.

For the compound `Cc1cccc(C)c1-c1cc2nc(n1)NS(=O)(=O)c1cccc(c1)C(=O)N(Cc1cnn(C(C)(C)C)c1)[C@H](CC(C)(C)C)CO2` [Compound 481], the Emax under setting [2] is above 60%.

Take `Cc1cccc(C)c1-c1cc2nc(n1)NS(=O)(=O)c1cccc(c1)C(=O)N(Cc1cccc(N3CCC[C@H]3C)n1)[C@H](CC1CC1)CO2` [Compound 463]: for the setting “Table 12, read-out: HBE EC50”, the EC50 is below 1 µM. Under setting [1], the Emax is above 60%.

With `Cc1cnc(CN2C(=O)c3cccc(c3)S(=O)(=O)Nc3nc(cc(-c4c(C)cccc4C)n3)OC[C@H]2CC(C)(C)C)nc1N(C)CC(C)(C)C` [Compound 328], the EC50 (Table 12, read-out: HBE EC50) is below 1 µM. Further, the Emax under setting [1] was above 60%.

For `Cc1cccc(C)c1-c1cc2nc(n1)NS(=O)(=O)c1cccc(c1)C(=O)N(Cc1cccc(-c3ncccn3)n1)[C@H](CC(C)(C)C)CO2` [Compound 590], the EC50 (Table 12, read-out: HBE EC50) is below 1 µM. Under setting [1], the Emax was above 60%.

Consider `Cc1cccc(C)c1-c1cc2nc(n1)NS(=O)(=O)c1cccc(c1)C(=O)N(Cc1ncc(OC3CC(F)(F)C3)cn1)[C@H](CC(C)(C)C)CO2` [Compound 1397], for which the half-maximal effective concentration (EC50) (HBE assay, read-out: HBE EC50) is below 1 µM. Also, the Emax under setting [3] is above 60%.

Regarding `COCCNc1cccnc1CN1C(=O)c2cccc(c2)S(=O)(=O)Nc2nc(cc(-c3c(C)cccc3C)n2)OC[C@H]1CC(C)(C)C` [Compound 378], the EC50 (Table 10, read-out: HBE EC50) was below 1 µM. Also, the Emax under setting [2] was above 60%.

`COc1ccc2nc3c(cc2c1)CN1C(O3)c2cccc(c2)S(=O)(=O)Nc2nc(cc(-c3c(C)cccc3C)n2)OC[C@H]1CC(C)(C)C` (stereo partly shown) [Compound 754]: the activation at 10 µM under setting [4] was above 60%.

On to `Cc1cccc(C)c1-c1cc2nc(n1)NS(=O)(=O)c1cccc(c1)C(=O)N(CC1CCN(c3ccccn3)CC1)[C@H](CC(C)(C)C)CO2` [Compound 493], for which, where the note is “Table 10, read-out: HBE EC50”, the EC50 was below 1 µM. For the same compound, the Emax under setting [2] was above 60%.

As for `Cc1cccc(C)c1-c1cc2nc(n1)NS(=O)(=O)c1cccc(c1)C(=O)N(CC(=O)N(C)C1CCC(C)(C)CC1)[C@H](CC(C)(C)C)CO2` [Compound 172], under setting [5], the activation at 10 µM is above 600%.

As for `Cc1cccc(C)c1-c1cc2nc(n1)NS(=O)(=O)c1cccc(c1)C(=O)N(Cc1cccc(C3CCCCO3)n1)[C@H](CC(C)(C)C)CO2` (stereo partly shown) [Compound 604], the concentration for a half-maximal effect (EC50) (Table 12, read-out: HBE EC50) was below 1 µM. The Emax under setting [1] is above 60%.

Turning to `COCC(C)N(C)c1cncc(CN2C(=O)c3cccc(c3)S(=O)(=O)Nc3nc(cc(-c4c(C)cccc4C)n3)OC[C@H]2CC(C)(C)C)n1` (stereo partly shown) [Compound 444], the half-maximal effective concentration (EC50) (Table 12, read-out: HBE EC50) is below 1 µM. Further, the Emax under setting [1] was above 60%.

On to `COCCN(C)c1ccc(CN2C(=O)c3cccc(c3)S(=O)(=O)Nc3nc(cc(-c4c(C)cccc4C)n3)OC[C@H]2CC(C)(C)C)nc1` [Compound 504], for which the half-maximal effective concentration (EC50) (Table 10, read-out: HBE EC50) lay within 1 to 3 µM. For the same compound, the Emax under setting [2] was above 60%.

As to `Cc1cccc(C)c1-c1cc2nc(n1)NS(=O)(=O)c1cccc(c1)C(=O)N(Cc1ccc(N3CC4(CC(=O)C4)C3)cn1)[C@H](CC(C)(C)C)CO2` [Compound 1056], where the note is “Table 13, read-out: HBE EC50”, the half-maximal effective concentration (EC50) was 1 to 3 µM. Moreover, the Emax under setting [6] was above 60%.

As for `Cc1cccc(C)c1-c1cc2nc(n1)NS(=O)(=O)c1cccc(c1)C(=O)N(Cc1ccccc1-c1c[nH]nc1C1CC1)[C@H](CC(C)(C)C)CO2` [Compound 303], the concentration giving a half-maximal response (EC50) (Table 10, read-out: HBE EC50) is below 1 µM. Under setting [2], the Emax is above 60%.

On to `Cc1cccc(C)c1-c1cc2nc(n1)NS(=O)(=O)c1cccc(c1)C(=O)N(Cc1cncc(N(C)CCOC(C)C)n1)[C@H](CC(C)(C)C)CO2` [Compound 262], for which, under “Table 12, read-out: HBE EC50”, the EC50 was below 1 µM. The Emax under setting [1] is above 60%.

`CO[C@H]1C[C@@H](Oc2cnc(CN3C(=O)c4cccc(c4)S(=O)(=O)Nc4nc(cc(-c5c(C)cccc5C)n4)OC[C@H]3CC(C)C)nc2)C1` [Compound 1432]: the EC50 (HBE assay, read-out: HBE EC50) was below 1 µM. Further, the Emax under setting [3] is above 60%.

In the case of `CCOc1cccnc1CN1C(=O)c2cccc(c2)S(=O)(=O)Nc2nc(cc(-c3c(C)cccc3C)n2)OC[C@H]1CC(C)(C)C` [Compound 742], the EC50 (Table 11, read-out: HBE EC50) was below 1 µM. For the same compound, the Emax under setting [7] is above 60%.

Turning to `Cc1cccc(C)c1-c1cc2nc(n1)NS(=O)(=O)c1cccc(c1)C(=O)N(Cc1cc(C3CCOCC3)[nH]n1)[C@H](CC(C)(C)C)CO2` [Compound 449], the activation at 10 µM under setting [8] is above 600%.

Turning to `Cc1cccc(C)c1-c1cc2nc(n1)NS(=O)(=O)c1cccc(c1)C(=O)N(Cc1ccc(C#CC(C)(C)CO)cn1)[C@H](CC(C)(C)C)CO2` [Compound 250], where the note is “Table 12, read-out: HBE EC50”, the EC50 was below 1 µM. For the same compound, the Emax under setting [1] was above 60%.

For the compound `Cc1cccc(C)c1-c1cc2nc(n1)NS(=O)(=O)c1cccc(c1)C(=O)N(Cc1ncc(OC3CC(C)(C)C3)cn1)[C@H](CC1CC1)CO2` [Compound 1454], under “HBE assay, read-out: HBE EC50”, the half-maximal effective concentration (EC50) is below 1 µM. Besides, the Emax under setting [3] is above 60%.

In the case of `Cc1cccc(C)c1-c1cc2nc(n1)NS(=O)(=O)c1cccc(c1)C(=O)N(CC1CCOC(C)(C)C1)[C@H](CC(C)(C)C)CO2` (single isomer, unassigned) [Compound 28], the activation at 10 µM (Table 11, read-out: HBE Activity at 10 μM (%)) is above 60%.

As to `Cc1cccc(C)c1-c1cc2nc(n1)NS(=O)(=O)c1cccc(c1)C(=O)N(Cc1cccc(N3[C@H](C)CC[C@@H]3C)n1)[C@H](CC(C)(C)C)CO2` [Compound 709], the half-maximal effective concentration (EC50) (Table 11, read-out: HBE EC50) is below 1 µM. The Emax under setting [7] fell in the range of 30 to 60%.

With `Cc1cccc(C)c1-c1cc2nc(n1)NS(=O)(=O)c1cccc(c1)C(=O)N(Cc1c(C)nn(C(C)(C)C)c1C)[C@H](CC(C)(C)C)CO2` [Compound 482], the activation at 10 µM under setting [4] is above 60%.

On to `Cc1cccc(C)c1-c1cc2nc(n1)NS(=O)(=O)c1cccc(c1)C(=O)N(Cc1ccc(C3CCOC3)cn1)[C@H](CC(C)(C)C)CO2` (stereo partly shown) [Compound 261], for which the 50% effective concentration (EC50) (Table 12, read-out: HBE EC50) was below 1 µM. Under setting [1], the Emax was above 60%.

Turning to `COCCCN(C)c1cccc(CN2C(=O)c3cccc(c3)S(=O)(=O)Nc3nc(cc(-c4c(C)cccc4C)n3)OC[C@H]2CC(C)(C)C)n1` [Compound 127, (11R)-6-(2,6-Dimethylphenyl)-11-(2,2-dimethylpropyl)-12-[[6-[3-methoxypropyl(methyl)amino]-2-pyridyl]methyl]-2,2-dioxo-9-oxa-2λ^6-thia-3,5,12,19-tetrazatricyclo[12.3.1.14,8]nonadeca-1(18),4(19),5,7,14,16-hexaen-13-one], the 50% effective concentration (EC50) (Table 10, read-out: HBE EC50) is below 1 µM. The Emax (read-out: HBE Max activity (%)) was above 60%.

Take `Cc1cccc(C)c1-c1cc2nc(n1)NS(=O)(=O)c1cccc(c1)C(=O)N(Cc1ncc(OCC(C)C)cn1)[C@H](CC(C)(C)C)CO2` [Compound 1396]: the concentration giving a half-maximal response (EC50) (HBE assay, read-out: HBE EC50) is below 1 µM. The Emax under setting [3] is above 60%.

As for `Cc1cccc(C)c1-c1cc2nc(n1)NS(=O)(=O)c1cccc(c1)C(=O)N(Cc1cncc(N(C)C(C)C)n1)[C@H](CC(C)(C)C)CO2` [Compound 881], the EC50 (Table 12, read-out: HBE EC50) is below 1 µM. Further, the Emax under setting [1] is above 60%.

For the compound `Cc1cccc(C)c1-c1cc2nc(n1)NS(=O)(=O)c1cccc(c1)C(=O)N(Cc1ccc(C(=O)N3CCOCC3)cn1)[C@H](CC(C)(C)C)CO2` [Compound 245], the activation at 10 µM under setting [5] is above 600%.

Take `Cc1cccc(C)c1-c1cc2nc(n1)NS(=O)(=O)c1cccc(c1)C(=O)N(CC1CN(C(=O)OC(C)(C)C)CCO1)[C@H](CC(C)(C)C)CO2` (stereo partly shown) [Compound 723]: for the setting “Table 11, read-out: HBE EC50”, the 50% effective concentration (EC50) was below 1 µM. Further, the Emax under setting [7] was above 60%.

Consider `Cc1cccc(C)c1-c1cc2nc(n1)NS(=O)(=O)c1cccc(c1)C(=O)N(Cc1cccc(N3CCC34CCOC4)n1)[C@H](CC(C)(C)C)CO2` (stereo partly shown) [Compound 532], for which the half-maximal effective concentration (EC50) (Table 13, read-out: HBE EC50) is below 1 µM. Moreover, the Emax under setting [6] was above 60%.

With `Cc1cccc(C)c1-c1cc2nc(n1)NS(=O)(=O)c1cccc(c1)C(=O)N(CC1CCN(c3ccncc3)CC1)[C@H](CC(C)(C)C)CO2` [Compound 492], the activation at 10 µM under setting [4] was above 60%.

Turning to `Cc1ccc2ccccc2c1-c1cc2nc(n1)NS(=O)(=O)c1cccc(c1)C(=O)N(Cc1ccc(N3CCOCC3)cn1)[C@H](CC(C)(C)C)CO2` [Compound 1075], under “Table 10, read-out: HBE EC50”, the EC50 is below 1 µM. Moreover, under setting [2], the Emax was above 60%.

With `Cc1cccc(C)c1-c1cc2nc(n1)NS(=O)(=O)c1cccc(c1)C(=O)N(CC(=O)N1CCC[C@H](c3ccccc3)C1)[C@H](CC(C)(C)C)CO2` [Compound 195], the activation at 10 µM under setting [5] is above 600%.

Take `Cc1cccc(C)c1-c1cc2nc(n1)NS(=O)(=O)c1cccc(c1)C(=O)N(CC(=O)N1CCCCC1c1ccccc1)[C@H](CC(C)(C)C)CO2` (stereo partly shown) [Compound 196]: the activation at 10 µM under setting [5] was above 600%.

As to `Cc1cccc(C)c1-c1cc2nc(n1)NS(=O)(=O)c1cccc(c1)C(=O)N(Cc1nc(C(C)(C)C)no1)[C@H](CC(C)(C)C)CO2` [Compound 1131], the activation at 10 µM under setting [5] is above 600%.

For the compound `Cc1cccc(C)c1-c1cc2nc(n1)NS(=O)(=O)c1cccc(c1)C(=O)N(Cc1ncc(OC(C)C)cn1)[C@H](C(C)C)CO2` [Compound 696], the activation at 10 µM under setting [8] was above 600%. Further, for the setting “Table 12, read-out: HBE EC50”, the EC50 was below 1 µM. Besides, the Emax under setting [1] is below 30%.

On to `Cc1cccc(C)c1-c1cc2nc(n1)NS(=O)(=O)c1cccc(c1)C(=O)N(Cc1ccc(N3CCN(C)CC3)cn1)[C@H](CC(C)(C)C)CO2` [Compound 478], for which, under setting [2], the Emax is above 60%.

As to `Cc1cccc(C)c1-c1cc2nc(n1)NS(=O)(=O)c1cccc(c1)C(=O)N(Cc1ncc(N3C4CCC3COC4)cn1)[C@H](CC(C)(C)C)CO2` [Compound 563], the EC50 (HBE EC50 (μM), Table 12) is below 1 µM. The Emax under setting [1] was above 60%.
